Patent publication US9999859B2, “Immobilized multi-layer artificial membrane for permeability measurements (PAMPA)” (CORNING INCORPORATED, priority 2005, dated 2018)
Where two headings read alike, the source gives them in different places.

Experiments:
[1] = cited from earlier work
[2] = PAMPA permeability with subject invention membrane; assay type: in vitro ADME; details: for Papp at 5 h: PAMPA; for measured permeability with 10% methanol, 90% PBS as working buffer: 90% PBS versus PBS, FIG. 8
Procedure: FIGS. 5-9 present various data relating to the subject invention. […] Then the filter plate 34 was coupled with the receiver plate 42 and the assembly was incubated in a humidity chamber without agitation at room temperature (except for a data set in FIG. 9, where the assembly was incubated in a humidity chamber without agitation at 37° C.) for 5 hours. At the end of the incubation, the plates 34, 42 were separated and 150 μL solution from each well 36, 44 of both the filter plate 34 and the receiver plate 42 was transferred to UV-transparent plates. The final concentrations of compounds in both donor wells and acceptor wells were analyzed by UV-plate reader. […] Where: • C0=initial compound concentration in donor well (mM) • CD (t)=compound concentration in donor well at time t. (mM) • CA (t)=compound concentration in acceptor well at time t.

[3] = human oral absorption; cited from earlier work
[4] = prior art PAMPA membrane, PBS pH 7.4, room temperature, no agitation
[5] = PBS pH 7.4, room temperature, no agitation, 5 hours, read-out: Pe Subject Invention Membrane Results

| SMILES | Pe Prior Art Results [1, 4] | Papp at 5 h [2, 5] [×10⁻⁶ cm/s] | Human Absorption [3] [%] | also measured |
| --- | --- | --- | --- | --- |
| Cc1cc(=O)n(-c2ccccc2)n1C [antipyrine] | 0.74 10^−6 cm/s |  |  | PAMPA permeability values found by the prior art ([1]; PAMPA): low |
| CC(=O)CC(c1ccccc1)c1c(O)c2ccccc2oc1=O (stereo not drawn) [warfarin] |  |  |  | Papp at 5 h ([2]; pH 7.4): 5.28 ×10⁻⁶ cm/s |
| NC(N)=Nc1nc(CSCCC(N)=NS(N)(=O)=O)cs1 [famotidine] | 0.06 10^−6 cm/s | 0.04 | 40 |  |
| CCCC(=O)Nc1ccc(OCC(O)CNC(C)C)c(C(C)=O)c1 (stereo not drawn) [acebutolol] |  | 0.21 | 50 |  |
| COCCc1ccc(OCC(O)CNC(C)C)cc1 (stereo not drawn) [metoprolol] |  | 4.29 |  | PAMPA permeability values found by the prior art ([1]; in words): low |
| CN1C(C(=O)Nc2ccccn2)=C(O)c2ccccc2S1(=O)=O [piroxicam] | 2.64 10^−6 cm/s | 4.02 | 100 |  |
| CC(C)(C)NC[C@H](O)COc1nsnc1N1CCOCC1 [timolol] | 0.61 10^−6 cm/s | 4.45 |  | PAMPA permeability values found by the prior art ([1]; in words): low |
| NC(=O)N1c2ccccc2C=Cc2ccccc21 [carbamazepine] | 6.4 10^−6 cm/s | 7.79 | 100 |  |
| Cn1c(=O)c2c(ncn2C)n(C)c1=O [caffeine] |  |  |  | PAMPA permeability values found by the prior art ([1]; in words): low |
| Cn1c(=O)c2[nH]cnc2n(C)c1=O [theophyline] |  |  |  | Pe Prior Art Results ([1]; PAMPA, pH 7.4): 0.04 10^−6 cm/s |
| N=C(N)NC(=O)c1nc(Cl)c(N)nc1N [amiloride] | 0.00 10^−6 cm/s | 0.08 | 50 |  |
| O=C(O)c1cc(/N=N/c2ccc(S(=O)(=O)Nc3ccccn3)cc2)ccc1O [sulphasalazine] | 0.00 10^−6 cm/s | 0.16 | 13 |  |
| NS(=O)(=O)c1cc2c(cc1Cl)NCNS2(=O)=O [hydrochlorothiazide] | 0.02 10^−6 cm/s | 0.09 |  |  |
| CC(C)(C)NCC(O)c1cc(O)cc(O)c1 (stereo not drawn) [terbutaline] | 0.05 10^−6 cm/s | 0.46 | 60 |  |
| COc1ccc2c(c1)c(CC(=O)O)c(C)n2C(=O)c1ccc(Cl)cc1 [indomethacin] |  | 6.24 |  |  |
| CC(C)(C)c1ccc(C(O)CCCN2CCC(C(O)(c3ccccc3)c3ccccc3)CC2)cc1 (stereo not drawn) [terfenadine] |  |  |  | measured permeability with 10% methanol, 90% PBS as working buffer [2]: can be measured |
| CC(C)NCC(O)COc1cccc2[nH]ccc12 (stereo not drawn) [pindolol] |  | 2.64 |  |  |
| CC(C(=O)O)c1cccc(C(=O)c2ccccc2)c1 (stereo not drawn) [ketoprofen] |  | 3.1 |  | PAMPA permeability values found by the prior art ([1]; in words): low |
| CCN1CCCC1CNC(=O)c1cc(S(N)(=O)=O)ccc1OC (stereo not drawn) [sulpiride] |  | 0.18 |  |  |
| CC(C)(C)NCC(O)COc1cccc2c1CC(O)C(O)C2 (stereo not drawn) [nadolol] | 0.28 10^−6 cm/s | 0.16 | 30 |  |
| O=C(O)Cc1ccccc1Nc1c(Cl)cccc1Cl [diclofenac] |  | 6.3 |  |  |
| Nc1nc2c(ncn2COCCO)c(=O)[nH]1 [acyclovir] |  | 0.1 |  |  |
| CC(C)Cc1ccc(C(C)C(=O)O)cc1 (stereo not drawn) [ibuprofen] | 2.4 10^−6 cm/s | 4.39 |  |  |
| CNC(=C[N+](=O)[O-])NCCSCc1ccc(CN(C)C)o1 [ranitidine] |  |  | 61 | Pe Subject Invention Membrane Results ([2]; PBS pH 7.4, room temperature, no agitation, 5 hours): 0.45 10^−6 cm/s |
| Clc1cccc(Cl)c1N=C1NCCN1 [clonidine] | 1.5 10^−6 cm/s | 4.92 | 100 |  |
| O=C1NC(=O)C(c2ccccc2)(c2ccccc2)N1 [phenytoin] | 0.38 10^−6 cm/s | 5.73 |  | PAMPA permeability values found by the prior art ([1]; in words): low |
| Clc1ccc(COC(Cn2ccnc2)c2ccc(Cl)cc2Cl)c(Cl)c1 (stereo not drawn) [miconazole] |  |  |  | measured permeability with 10% methanol, 90% PBS as working buffer [2]: can be measured |
